Data taken from patent US20250282768A1 (Janssen Pharmaceutica NV, priority 2022, published 2025).

The molecules below were run on p-IKKa levels in L363 (NIK translocated multiple myeloma) cells (assay: Assay 2: Effect of compounds on p-IKKa levels in L363 (NIK translocated multiple myeloma) cells). Settings: Homo sapiens, L-363, 6 h, read-out: Assay 2 IC50 (nM), p-IKKa (Ser 176/180) in BAFF stimulated L363 cells with MG132, 6 h; average if tested more than once.
Format: cell-based
How it was run: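 Read-out is p-IKKa Ser176/180 by AlphaLISA SureFire in lysates. Cells were BAFF-primed (250 ng/ml) overnight or left unstimulated, then exposed 6 h at 37 °C to compound with MG132 (10 μM), 0.3% DMSO. IC50 from sigmoidal curve fit, normalized between stimulated and unstimulated controls.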

For CN1CC[C@@](O)(c2cc(-c3cccc(-c4ccnc(Nc5nc(CN6CCCC6)cs5)n4)n3)no2)C1=O [Example 258, (R)-3-Hydroxy-1-methyl-3-(3-(6-(2-((4-(pyrrolidin-1-ylmethyl)thiazol-2-yl)amino)pyrimidin-4-yl)pyridin-2-yl)isoxazol-5-yl)pyrrolidin-2-one], which IC50 is on record?
The IC50 was under 50 nM.

With CN1CC[C@@](O)(c2cc(-c3cccc(-c4ccnc(Nc5cnn6c5CCCC6)n4)n3)no2)C1=O [Example 259, (R)-3-Hydroxy-1-methyl-3-(3-(6-(2-((4,5,6,7-tetrahydropyrazolo[1,5-a]pyridin-3-yl)amino)pyrimidin-4-yl)pyridin-2-yl)isoxazol-5-yl)pyrrolidin-2-one] as the molecule, how does the IC50 read?
Its IC50 is under 50 nM.

For COCc1ccnc(Nc2nccc(-c3cccc(-c4cc([C@]5(O)CCN(C)C5=O)on4)n3)n2)c1 [Example 260, (R)-3-Hydroxy-3-(3-(6-(2-((4-(methoxymethyl)pyridin-2-yl)amino)pyrimidin-4-yl)pyridin-2-yl)isoxazol-5-yl)-1-methylpyrrolidin-2-one], which IC50 is on record?
The IC50 was under 50 nM.

For CCn1cc(Nc2nccc(-c3cccc(-c4cc([C@@]5(O)C(=O)N(C)CC5(F)F)on4)n3)n2)cn1 [Example 261, (R)-3-(3-(6-(2-((1-Ethyl-1H-pyrazol-4-yl)amino)pyrimidin-4-yl)pyridin-2-yl)isoxazol-5-yl)-4,4-difluoro-3-hydroxy-1-methylpyrrolidin-2-one], which IC50 is on record?
The IC50 was under 50 nM.

CN1CC[C@@](O)(c2cc(-c3cccc(-c4ccnc(Nc5cn(C)nc5F)n4)n3)no2)C1=O [Example 262, (R)-3-(3-(6-(2-((3-Fluoro-1-methyl-1H-pyrazol-4-yl)amino)pyrimidin-4-yl)pyridin-2-yl)isoxazol-5-yl)-3-hydroxy-1-methylpyrrolidin-2-one] was tested. Which IC50 did it give?
Its IC50 is under 50 nM.

With CN1CC[C@@](O)(c2cc(-c3cccc(-c4ccnc(Nc5ccn(C)n5)n4)n3)on2)C1=O [Example 263, (R)-3-Hydroxy-1-methyl-3-(5-(6-(2-((1-methyl-1H-pyrazol-3-yl)amino)pyrimidin-4-yl)pyridin-2-yl)isoxazol-3-yl)pyrrolidin-2-one] as the molecule, how does the IC50 read?
The IC50 was under 50 nM.

CN1CC[C@@](O)(c2cc(-c3cccc(-c4ccnc(Nc5cnn(C6COC6)c5)n4)n3)no2)C1=O [Example 264, (R)-3-Hydroxy-1-methyl-3-(3-(6-(2-((1-(oxetan-3-yl)-1H-pyrazol-4-yl)amino)pyrimidin-4-yl)pyridin-2-yl)isoxazol-5-yl)pyrrolidin-2-one] was tested. Which IC50 did it give?
The IC50 was under 50 nM.

For Cc1cnnc(Nc2nccc(-c3cccc(-c4cc([C@]5(O)CCN(C)C5=O)on4)n3)n2)n1 [Example 265, (R)-3-Hydroxy-1-methyl-3-(3-(6-(2-((5-methyl-1,2,4-triazin-3-yl)amino)pyrimidin-4-yl)pyridin-2-yl)isoxazol-5-yl)pyrrolidin-2-one], which IC50 is on record?
The IC50 was over 500 nM.

For CN1CC[C@@](O)(c2cc(-c3cccc(-c4ccnc(Nc5nc(C6CCOCC6)nn5C)n4)n3)no2)C1=O [Example 266, (R)-3-Hydroxy-1-methyl-3-(3-(6-(2-((1-methyl-3-(tetrahydro-2H-pyran-4-yl)-1H-1,2,4-triazol-5-yl)amino)pyrimidin-4-yl)pyridin-2-yl)isoxazol-5-yl)pyrrolidin-2-one], which IC50 is on record?
Its IC50 is over 500 nM.

CN1CC[C@@](O)(c2cc(-c3cccc(-c4ccnc(Nc5nnn(C)n5)n4)n3)no2)C1=O [Example 267, (R)-3-Hydroxy-1-methyl-3-(3-(6-(2-((2-methyl-2H-tetrazol-5-yl)amino)pyrimidin-4-yl)pyridin-2-yl)isoxazol-5-yl)pyrrolidin-2-one] was tested. Which IC50 did it give?
Its IC50 is 50 to 500 nM.

Which IC50 does the source give for Cc1ccc(O)c(Nc2nccc(-c3cccc(-c4cc([C@]5(O)CCN(C)C5=O)on4)n3)n2)n1 [Example 268, (R)-3-Hydroxy-3-(3-(6-(2-((3-hydroxy-6-methylpyridin-2-yl)amino)pyrimidin-4-yl)pyridin-2-yl)isoxazol-5-yl)-1-methylpyrrolidin-2-one] here?
The IC50 was over 500 nM.

Cc1c(Nc2nccc(-c3cccc(-c4cc([C@]5(O)CCN(C)C5=O)on4)n3)n2)cnn1CC(C)(C)O [Example 269, (R)-3-Hydroxy-3-(3-(6-(2-((1-(2-hydroxy-2-methylpropyl)-5-methyl-1H-pyrazol-4-yl)amino)pyrimidin-4-yl)pyridin-2-yl)isoxazol-5-yl)-1-methylpyrrolidin-2-one] was tested. Which IC50 did it give?
Its IC50 is under 50 nM.

How did the IC50 turn out when CN1CC[C@@](O)(c2cc(-c3cccc(-c4ccnc(Nc5ccn(CC6CCOCC6)n5)n4)n3)no2)C1=O [Example 270, (R)-3-Hydroxy-1-methyl-3-(3-(6-(2-((1-((tetrahydro-2H-pyran-4-yl)methyl)-1H-pyrazol-3-yl)amino)pyrimidin-4-yl)pyridin-2-yl)isoxazol-5-yl)pyrrolidin-2-one] was run?
Its IC50 is under 50 nM.

COCc1nc(Nc2nccc(-c3cccc(-c4cc([C@]5(O)CCN(C)C5=O)on4)n3)n2)n(C)n1 [Example 271, (R)-3-Hydroxy-3-(3-(6-(2-((3-(methoxymethyl)-1-methyl-1H-1,2,4-triazol-5-yl)amino)pyrimidin-4-yl)pyridin-2-yl)isoxazol-5-yl)-1-methylpyrrolidin-2-one] was tested. Which IC50 did it give?
The IC50 was over 500 nM.

Which IC50 does the source give for Cc1ccn2cnnc2c1Nc1nccc(-c2cccc(-c3cc([C@]4(O)CCN(C)C4=O)on3)n2)n1 [Example 273, (R)-3-Hydroxy-1-methyl-3-(3-(6-(2-((7-methyl-[1,2,4]triazolo[4,3-a]pyridin-8-yl)amino)pyrimidin-4-yl)pyridin-2-yl)isoxazol-5-yl)pyrrolidin-2-one] here?
Its IC50 is over 500 nM.

How did the IC50 turn out when CN(C)Cc1ccc(Nc2nccc(-c3cccc(-c4cc([C@]5(O)CCN(C)C5=O)on4)n3)n2)nc1 [Example 274, (R)-3-(3-(6-(2-((5-((Dimethylamino)methyl)pyridin-2-yl)amino)pyrimidin-4-yl)pyridin-2-yl)isoxazol-5-yl)-3-hydroxy-1-methylpyrrolidin-2-one] was run?
Its IC50 is 50 to 500 nM.

How did the IC50 turn out when CCn1ncnc1Nc1nccc(-c2cccc(-c3cc([C@]4(O)CCN(C)C4=O)on3)n2)n1 [Example 276, (R)-3-(3-(6-(2-((1-Ethyl-1H-1,2,4-triazol-5-yl)amino)pyrimidin-4-yl)pyridin-2-yl)isoxazol-5-yl)-3-hydroxy-1-methylpyrrolidin-2-one] was run?
The IC50 was over 500 nM.

For CN(C)C(=O)Cn1ccc(Nc2nccc(-c3cccc(-c4cc([C@]5(O)CCN(C)C5=O)on4)n3)n2)n1 [Example 277, (R)-2-(3-((4-(6-(5-(3-Hydroxy-1-methyl-2-oxopyrrolidin-3-yl)isoxazol-3-yl)pyridin-2-yl)pyrimidin-2-yl)amino)-1H-pyrazol-1-yl)-N,N-dimethylacetamide], which IC50 is on record?
Its IC50 is 50 to 500 nM.

With Cc1nn(CCN(C)C)c(C)c1Nc1nccc(-c2cccc(-c3cc([C@]4(O)CCN(C)C4=O)on3)n2)n1 [Example 278, (R)-3-(3-(6-(2-((1-(2-(Dimethylamino)ethyl)-3,5-dimethyl-1H-pyrazol-4-yl)amino)pyrimidin-4-yl)pyridin-2-yl)isoxazol-5-yl)-3-hydroxy-1-methylpyrrolidin-2-one] as the molecule, how does the IC50 read?
Its IC50 is over 500 nM.

Which IC50 does the source give for CN1CC[C@@](O)(c2cc(-c3cccc(-c4ccnc(Nc5cc(Cl)n(C)n5)n4)n3)no2)C1=O [Example 279, (R)-3-(3-(6-(2-((5-Chloro-1-methyl-1H-pyrazol-3-yl)amino)pyrimidin-4-yl)pyridin-2-yl)isoxazol-5-yl)-3-hydroxy-1-methylpyrrolidin-2-one] here?
The IC50 was 50 to 500 nM.

How did the IC50 turn out when CN1CC[C@@](O)(c2cc(-c3cccc(-c4ccnc(Nc5cc(CO)n(C)n5)n4)n3)no2)C1=O [Example 280, (R)-3-Hydroxy-3-(3-(6-(2-((5-(hydroxymethyl)-1-methyl-1H-pyrazol-3-yl)amino)pyrimidin-4-yl)pyridin-2-yl)isoxazol-5-yl)-1-methylpyrrolidin-2-one] was run?
Its IC50 is 50 to 500 nM.

For CN1CC[C@@](O)(c2cc(-c3cccc(-c4ccnc(Nc5ccnnc5)n4)n3)no2)C1=O [Example 281, (R)-3-Hydroxy-1-methyl-3-(3-(6-(2-(pyridazin-4-ylamino)pyrimidin-4-yl)pyridin-2-yl)isoxazol-5-yl)pyrrolidin-2-one], which IC50 is on record?
Its IC50 is over 500 nM.

With Cc1cc(Nc2nccc(-c3cccc(-c4cc([C@]5(O)CCN(C)C5=O)on4)n3)n2)nn1C [Example 282, (R)-3-(3-(6-(2-((1,5-Dimethyl-1H-pyrazol-3-yl)amino)pyrimidin-4-yl)pyridin-2-yl)isoxazol-5-yl)-3-hydroxy-1-methylpyrrolidin-2-one] as the molecule, how does the IC50 read?
The IC50 was under 50 nM.

How did the IC50 turn out when Cc1cc(Nc2nccc(-c3cccc(-c4cc([C@]5(O)CCN(C)C5=O)on4)n3)n2)cc(C)n1 [Example 283, (R)-3-(3-(6-(2-((2,6-Dimethylpyridin-4-yl)amino)pyrimidin-4-yl)pyridin-2-yl)isoxazol-5-yl)-3-hydroxy-1-methylpyrrolidin-2-one] was run?
The IC50 was under 50 nM.

How did the IC50 turn out when COc1ccc(Nc2nccc(-c3cccc(-c4cc([C@]5(O)CCN(C)C5=O)on4)n3)n2)cn1 [Example 285, (R)-3-Hydroxy-3-(3-(6-(2-((6-methoxypyridin-3-yl)amino)pyrimidin-4-yl)pyridin-2-yl)isoxazol-5-yl)-1-methylpyrrolidin-2-one] was run?
The IC50 was under 50 nM.

How did the IC50 turn out when C[C@@H]1C[C@@](O)(c2cc(-c3cccc(-c4ccnc(Nc5cnn(C)c5)n4)n3)no2)C(=O)N1C [Example 286, (3R,5R)-3-Hydroxy-1,5-dimethyl-3-(3-(6-(2-((1-methyl-1H-pyrazol-4-yl)amino)pyrimidin-4-yl)pyridin-2-yl)isoxazol-5-yl)pyrrolidin-2-one] was run?
Its IC50 is over 500 nM.

With CN1C(=O)[C@](O)(c2cc(-c3cccc(-c4ccnc(Nc5cnn(C)c5Cl)n4)n3)no2)[C@H]2C[C@H]21 [Example 287, (1R,4R,5S)-4-(3-(6-(2-((5-Chloro-1-methyl-1H-pyrazol-4-yl)amino)pyrimidin-4-yl)pyridin-2-yl)isoxazol-5-yl)-4-hydroxy-2-methyl-2-azabicyclo[3.1.0]hexan-3-one] as the molecule, how does the IC50 read?
The IC50 was 50 to 500 nM.

How did the IC50 turn out when COc1cncc(Nc2nccc(-c3cccc(-c4cc([C@]5(O)CCN(C)C5=O)on4)n3)n2)c1 [Example 288, (R)-3-Hydroxy-3-(3-(6-(2-((5-methoxypyridin-3-yl)amino)pyrimidin-4-yl)pyridin-2-yl)isoxazol-5-yl)-1-methylpyrrolidin-2-one] was run?
The IC50 was under 50 nM.
